Reference: patent US4870097A, “Pharmaceutical use of derivatives of tryptophan” (priority 1984, dated 1989)
“Also recorded” adds a separate entry of the source.

Assays:
[1] = tested on: analgesic activity of DALA; assay: Tail Flick test: increase in the analgesic activity of DALA (i.c.v.); format: in vivo, rats; set-up: analgesic activity (Tail Flick), 10' / analgesic activity (Tail Flick), 20' / analgesic activity (Tail Flick), 30' / analgesic activity (Tail Flick), 45' / analgesic activity (Tail Flick), 60' / analgesic activity (Tail Flick), AVERAGE: scale not given here; conditions: for analgesic activity (Tail Flick), AVERAGE: average 10'-60'
Protocol: In order to check one of the possible mechanisms for the action of the compounds of the invention, that is, their possible inhibition of the enzymatic degradation of endogenous enkephalins, the following experiment was carried out:
A cannula was implanted in the right lateral ventricle of male rats having a weight of 150-200 g (groups of five animals were used) in order to allow the intracerebroventricular (i.c.v.) administration of drugs according to the method of Noble et al (Life Science 6, (1970) 281-291).
The animals were subsequently treated (i.c.v.) with 3 μg of D-ala-methionine-enkephalinamide (DALA) immediately after an injection (i.c.v.) of the compounds under study at the doses given in Table 4. Analgesia was tested for by the Tail Flick method already mentioned, at the times

[2] = tested on: guinea pig gall bladder contracted with CCK-8; assay: Anti-CCK activity on guinea pig gall bladders in vitro; format: biochemical; conditions: CCK-8 10 ng/ml, concentration antagonising 50% of contracting effect
Procedure, shortened: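 Longitudinal gall bladder strips in Krebs at 32° C, gassed with O2/CO2 95:5, were contracted with CCK-8 at 10 ng/ml and contractions recorded isometrically via force transducer. ED50 in mcg/ml is the compound concentration antagonising 50% of CCK contraction, derived by regression over at least three experiments.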

[3] = tested on: activity of analgesic drugs; assay: Hot plate test: potentiation of analgesic drugs; format: in vivo, rats
Protocol: The method is that described by Eddy et al. (J. Pharmac. Exp. Ther. 107, 385 (1953)).
Groups of five male rats having a weight of about 150 g and which have not been fasting are used.
The animals are placed on a metal plate which is on the bottom of a transparent cylinder heated to 55°±1° C. by an azeotropic boiling mixture (1:1 acetone-ethyl formate). The time which passes between the moment at which the animal is placed on the hot plate and the moment at which it licks its feet or tries to jump out of the cylinder is defined as the reaction time. The control reaction time is measured 10 and 5 minutes before the administration of the drugs and 10, 20, 30, 45, 60, 90 minutes afterwards. The animals are left on the plate for a maximum period of 30 seconds.
The response to the administration of the product is considered positive if at least a doubling of the normal reaction time is seen. The results obtained are given in Table 2 which records the groups treated, the dose administered and the stay times on the plate expressed as the number of positive responses over the number treated.

endogenous opiates = assay: Tail Flick Test after transcutaneous shock: analgesic activity of endogenous opiates; format: in vivo, rats; conditions: for Average latency, 5': 5' after electric shock; for Average latency, 10': 10' after electric shock; for Average latency, 15': 15' after electric shock
Protocol: Influence of several of the compounds of the invention on the analgesic activity of endogenous opiates released under transcutaneous shock in rats measured by the Tail Flick Test
The method is that described by Lewis et al. (J. Neurosc. 1, 358 (1981). Male rats having a weight of about 200 g, which have not been fasting, are used.
The animals are stressed by the application to the front leg of a 60 Hz-2.5 mA current in pulses of a duration of one second every five seconds for 20 minutes.
This stress regime causes the release of endogenous opiates.

[4] = tested on: analgesic activity of morphine; assay: Tail Flick Test: increase in the analgesic effect of morphine; format: in vivo, rats
Procedure, shortened: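 Male non-fasted rats, 150-200 g; heat source (75 °C) on tail, latency to tail movement timed, 8 s cut-off. Measured before and 10, 20, 30, 45, 60, 90 min after analgesic dosing; percentage variation per animal, averaged over groups of five.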

[5] = acetylsalicylic acid 100 + C. 26 5 mg/kg i.p.
[6] = acetylsalicylic acid 100 + C. 26 10 mg/kg i.p.
[7] = acetylsalicylic acid 100 + C. 26 20 mg/kg i.p.
[8] = propoxyphene 15 + C. 26 1 mg/kg i.p.
[9] = propoxyphene 15 + C. 26 2.5 mg/kg i.p.
[10] = propoxyphene 15 + C. 26 5.0 mg/kg i.p.

**Q.** What does the source list for `CCCCCCc1ccc(C(=O)N[C@@H](Cc2c[nH]c3ccccc23)C(=O)O)cc1` [Compound 26]?
**A.** analgesic activity (Tail Flick), 10' ([1]; 10(D) + 0.001 mg/kg (ICV)): 62.44; analgesic activity (Tail Flick), 20' ([1]; 10(D) + 0.001 mg/kg (ICV)): 73.94; analgesic activity (Tail Flick), 30' ([1]; 10(D) + 0.001 mg/kg (ICV)): 67.94; analgesic activity (Tail Flick), 45' ([1]; 10(D) + 0.001 mg/kg (ICV)): 40.38; analgesic activity (Tail Flick), 60' ([1]; 10(D) + 0.001 mg/kg (ICV)): 34.06; analgesic activity (Tail Flick), AVERAGE ([1]; 10(D) + 0.001 mg/kg (ICV)): 55.75 ± 7.84; analgesic activity (Tail Flick), 10' ([1]; 10(D) + 0.01 mg/kg (ICV)): 80.54; analgesic activity (Tail Flick), 20' ([1]; 10(D) + 0.01 mg/kg (ICV)): 82.66; analgesic activity (Tail Flick), 30' ([1]; 10(D) + 0.01 mg/kg (ICV)): 70.42; analgesic activity (Tail Flick), 45' ([1]; 10(D) + 0.01 mg/kg (ICV)): 45.9; analgesic activity (Tail Flick), 60' ([1]; 10(D) + 0.01 mg/kg (ICV)): 68.9; analgesic activity (Tail Flick), AVERAGE ([1]; 10(D) + 0.01 mg/kg (ICV)): 69.68 ± 6.53; Anti CCK-8 activity, ED50 [2]: 152.1 µg/mL; Positive Total X/25 [3, 5]: 15; positive responses over the number treated, 10' [3, 5]: 3/5; positive responses over the number treated, 20' [3, 5]: 2/5; positive responses over the number treated, 30' [3, 5]: 4/5; positive responses over the number treated, 45' [3, 5]: 4/5; positive responses over the number treated, 60' [3, 5]: 2/5; Positive Total X/25 [3, 6]: 21; positive responses over the number treated, 10' [3, 6]: 5/5; positive responses over the number treated, 20' [3, 6]: 4/5; positive responses over the number treated, 30' [3, 6]: 5/5; positive responses over the number treated, 45' [3, 6]: 4/5; positive responses over the number treated, 60' [3, 6]: 3/5; Positive Total X/25 [3, 7]: 23; positive responses over the number treated, 10' [3, 7]: 4/5; positive responses over the number treated, 20' [3, 7]: 5/5; positive responses over the number treated, 30' [3, 7]: 5/5; positive responses over the number treated, 45' [3, 7]: 5/5; positive responses over the number treated, 60' [3, 7]: 4/5; Positive Total X/25 [3, 8]: 15; positive responses over the number treated, 10' [3, 8]: 2/5; positive responses over the number treated, 20' [3, 8]: 3/5; positive responses over the number treated, 30' [3, 8]: 4/5; positive responses over the number treated, 45' [3, 8]: 3/5; positive responses over the number treated, 60' [3, 8]: 3/5; Positive Total X/25 [3, 9]: 20; positive responses over the number treated, 10' [3, 9]: 3/5; positive responses over the number treated, 20' [3, 9]: 5/5; positive responses over the number treated, 30' [3, 9]: 5/5; positive responses over the number treated, 45' [3, 9]: 4/5; positive responses over the number treated, 60' [3, 9]: 3/5; Positive Total X/25 [3, 10]: 24; positive responses over the number treated, 10' [3, 10]: 4/5; positive responses over the number treated, 20' [3, 10]: 5/5; positive responses over the number treated, 30' [3, 10]: 5/5; positive responses over the number treated, 45' [3, 10]: 5/5; positive responses over the number treated, 60' [3, 10]: 5/5; analgesic activity of propoxyphene (in words) ([3]; with propoxyphene, 2.5 mg/kg i.p. (double), 5 mg/kg i.p. (maximum effect)): at least double the analgesic activity of propoxyphene; also recorded: a maximum effect; Average latency, 5' (endogenous opiates; 0.5 mg/kg i.v. + stress): 6.62 ± 0.72 s; Average latency, 5' (endogenous opiates; 2 mg/kg i.v. + stress): 11.0 ± 0.65 s; Average latency, 10' (endogenous opiates; 0.5 mg/kg i.v. + stress): 6.1 ± 0.61 sec.; Average latency, 10' (endogenous opiates; 2 mg/kg i.v. + stress): 9.28 ± 0.78 sec.; Average latency, 15' (endogenous opiates; 0.5 mg/kg i.v. + stress): 5.52 ± 0.9 s; Average latency, 15' (endogenous opiates; 2 mg/kg i.v. + stress): 6.84 ± 0.73 s; percentage variation in the latency of the pain sensation, 10' ([4]; 10', compound 10 mg/kg i.p. + morphine 2 mg/kg (row Morphine: alone), ± S.E.): 100.0 ± 0.0%; percentage variation in the latency of the pain sensation, 20' ([4]; 20', compound 10 mg/kg i.p. + morphine 2 mg/kg (row Morphine: alone), ± S.E.): 87.6 ± 9.2%; percentage variation in the latency of the pain sensation, 30' ([4]; 30', compound 10 mg/kg i.p. + morphine 2 mg/kg (row Morphine: alone), ± S.E.): 100.0 ± 0.0%; percentage variation in the latency of the pain sensation, 45' ([4]; 45', compound 10 mg/kg i.p. + morphine 2 mg/kg (row Morphine: alone), ± S.E.): 100.0 ± 0.0%; percentage variation in the latency of the pain sensation, 60' ([4]; 60', compound 10 mg/kg i.p. + morphine 2 mg/kg (row Morphine: alone), ± S.E.): 100.0 ± 0.0%; percentage variation in the latency of the pain sensation, 90' ([4]; 90', compound 10 mg/kg i.p. + morphine 2 mg/kg (row Morphine: alone), ± S.E.): 84.5 ± 9.8%; M(10'-90') average percentage variation ([4]; mean 10'-90', compound 10 mg/kg i.p. + morphine 2 mg/kg (row Morphine: alone)): 96.3%; Potency ratio relative to morphine alone ([4]; rat, in vivo): 3.2
